Assay results as given in patent US20260232717A1, “PARENTERAL NUTRITION FORMULATION COMPRISING VITAMIN B12” (BAXTER INTERNATIONAL INC., priority 2020, published 2026).
Marks after values point to notes of the source that are not given here.

Tests used:
Assay type in all cases: physicochemical
[1] = Stability of vitamins in 35% glucose solution during sterilization (Cycles 1-4) and storage; settings: for concentration, T1M40° C. / concentration, T3M40° C. / concentration, Cycle 3 T0 / concentration, T6M40° C. / concentration, Cycle 4 T0 / concentration, Unsterilized T0 / concentration, T6M40° C., sum of cyanocobalamin and hydroxocobalamin: 35% glucose solution; for concentration, T1M40° C.: 1 month 40° C.; for concentration, T3M40° C.: 3 months 40° C.; for concentration, Cycle 3 T0: Cycle 3 (water spray sterilization, Co = 25 minutes); for concentration, Cycle 3 T0 / concentration, Cycle 4 T0: after sterilization; for concentration, T6M40° C. / concentration, T6M40° C., sum of cyanocobalamin and hydroxocobalamin: 6 months 40° C.; for concentration, Cycle 4 T0: Cycle 4 (water spray sterilization, Co = 19 minutes); for concentration, Unsterilized T0: before sterilization
Description: (§1) For testing the stability of vitamin B12 in formulation as they are typically used in parenteral nutrition, a 35% glucose solution, a 14.2% amino acid formulation such as found, for example, in Olimel N9E (Baxter Int. Inc.), and a 20% lipid emulsion such as found in Clinoleic 20% (Baxter Int. Inc.) were supplemented with different vitamins combinations which always included vitamin B12. KC1 was added into the glucose solution to understand if it has an effect on the stability of vitamin B12. Vitamin B12 was introduced as […]. Ascorbyl palmitate was added to the lipid emulsion formulation as a stabilizing agent due to its antioxidant properties. In addition, two separate micellar solutions (“Vit A” and “Vit B”, see Table 5) comprising certain vitamins to be assessed with regard to degradation (B3, B6, B8, B9, B12, C) but formulated with different excipients as micellization agents were tested for vitamin B12 stability. Vit A consisted of a solution of mixed micelles with ascorbyl palmitate as a potential stability enhancer. Vit B was formulated with a mix of polysorbates, PEG and sorbitol to form micelles. The micellar solutions were prepared by mixing, under high speed, a solution composed of glycocholic acid and lecithins dissolved in water. In case of Vit B, the glycocholic acid and lecithin were replaced by PEG and polysorbate. All formulations were provided in standard flexible containers and overpouched with an aluminum overpouch for subsequent sterilization. For an overview over formulations and conditions see Table 5.
(§2) All samples were submitted to two different sterilization technologies. Steam sterilization targeting a Fo=8 min was. used for large volumes (400/800 ml, Cycle 2) and for small volumes (25/50 ml, Cycle 1) as lined out in Table 5 above. The same samples were sterilized by water spray sterilization with a serial tower continuous sterilization equipment with two different exposure times (Cycles 3 (25 min.) and 4 (19 min.)).
(§3) The vitamin recovery was then compared between the different sterilization cycles and formulations to understand the impact of the formulation and the sterilization technology used on their respective short- and long-term stability. Therefore, after sterilization, the samples were stored at 40° C./[…] for 6 months to evaluate the recovery of vitamin B12 at TIM, T3M and T6M. Besides, backup samples were stored at 5° C. Finally, some samples were also stored at 25° C./40% RH to provide for real time stability data.

[2] = Stability of vitamin B12 in 20% lipid emulsion with ascorbyl palmitate during sterilization (Cycles 1-4) and storage; settings: for concentration, T1M40° C.: 1 month 40° C.; for concentration, T6M40° C., sum of cyanocobalamin and hydroxocobalamin: 6 months 40° C.
Description: as §1, §2, §3
Vitamin B12 was also considerably degraded in the lipid emulsion (Tables 8 through 11). […] It should thus be avoided in formulations according to the invention.

[3] = Studies of cyanocobalamin in lipid emulsions (summary statement)
Description: (storage for 3 months at 40° C.), even though hydroxocobalamin seems to remain relatively stable for about 6 months at 40° C.

[4] = Cycle 1 (steam sterilization), 25 ml
[5] = Cycle 2 (steam sterilization), 800 ml

concentration, T1M40° C. [1, 4] [ng/mL] | concentration, T3M40° C. [1, 4] [ng/mL] | concentration, T1M40° C. [1, 5] [ng/mL] | concentration, T3M40° C. [1, 5] [ng/mL] | concentration, Cycle 3 T0 [1] [ng/mL] | concentration, T3M40° C. ([1]; Cycle 3 (water spray)) [ng/mL] | concentration, T6M40° C. ([1]; Cycle 3 (water spray)) [ng/mL] | concentration, Cycle 4 T0 ([1]; 800 ml) [ng/mL] | concentration, T3M40° C. ([1]; Cycle 4 (water spray)) [ng/mL] | concentration, T6M40° C. ([1]; Cycle 4 (water spray)) [ng/mL] | concentration, Unsterilized T0 ([1]; Table 6A (25 ml)) [ng/mL] | concentration, Unsterilized T0 ([1]; Table 6B (800 ml)) [ng/mL] | concentration, Unsterilized T0 ([1]; Table 7A) [ng/mL] | concentration, Unsterilized T0 ([1]; Table 7B, 800 ml) [ng/mL] | Molecule | further results
49300 | 50200 | 50600 | 51200 | 50500 | 50300 | 48270 | 50400 | 51000 | 49350 | 51100 | 51100 | 52800 | 52800 | O=C(O)c1cccnc1 [Batch B3, niacin] | –
6400 | 6500 | 5930 | 6000 | 6230 | 6100 | 6040 | 6270 | 5900 | 6030 | 6400 | 6400 | 6610 | 6610 | Cc1ncc(CO)c(CO)c1O [Batch B6, Pyridoxine] | –
4.5 | 3.7 | 4 | 3.6 | 5.1 | 4.1 | – | 5.2 | 4.1 | – | 6.2 | 6.2 | 6 | 6 | cobalamin [Batch B12] | concentration, T6M40° C., sum of cyanocobalamin and hydroxocobalamin ([1]; Cycle 3 (water spray)): 0.0023* mg/L; concentration, T6M40° C., sum of cyanocobalamin and hydroxocobalamin ([1]; Cycle 4 (water spray)): 0.0031* mg/L; concentration, Unsterilized T0 ([2]; 20% lipid emulsion with ascorbyl palmitate, Table 8, before sterilization): 15 ng/mL; concentration, T1M40° C. ([2]; 20% lipid emulsion, Cycle 1 (steam sterilization)): 4 ng/mL; concentration, T3M40° C. ([2]; 20% lipid emulsion, Cycle 1 (steam sterilization), 3 months 40° C.): <LOD; concentration, T1M40° C. ([2]; 20% lipid emulsion, Cycle 2 (steam sterilization)): <LOD; concentration, Cycle 2 T0 ([2]; 20% lipid emulsion, Cycle 2 (steam sterilization), after sterilization): 5 ng/mL; concentration, Cycle 3 T0 ([2]; 20% lipid emulsion, Cycle 3 (water spray sterilization), after sterilization): 5 ng/mL; concentration, T6M40° C., sum of cyanocobalamin and hydroxocobalamin ([2]; 20% lipid emulsion, Cycle 3 (water spray)): 3.7 ng/mL; concentration, Unsterilized T0 ([2]; 20% lipid emulsion, Table 10, before sterilization): 14 ng/mL; concentration, Unsterilized T0 ([2]; 20% lipid emulsion, Table 11, before sterilization): 14 ng/mL; concentration, T0 after sterilization ([2]; 20% lipid emulsion, Table 11, head 'Cycle 3', water spray sterilization with serial tower continuous equipment): 6 ng/mL; concentration, T6M40° C., sum of cyanocobalamin and hydroxocobalamin ([2]; 20% lipid emulsion, Table 11, head 'Cycle 3', water spray): 5.5 ng/mL
– | – | – | – | – | – | – | – | – | – | – | – | – | – | cyanocobalamin | cyanocobalamin detection after 6 months ([1]; glucose solution, Cycles 1 and 2 (steam sterilization), FIG. 2): no cyanocobalamin can be detected; cyanocobalamin detection ([3]; lipid emulsions irrespective of oil source, pH or stabilizing agent, T3M40° C.): no more cyanocobalamin can be detected
– | – | – | – | – | – | – | – | – | – | – | – | – | – | C/C1=C2/[N-][C@H]([C@H](CC(N)=O)[C@@]2(C)CCC(=O)NC[C@@H](C)OP(=O)([O-])O[C@H]2[C@@H](O)[C@@H](n3cnc4cc(C)c(C)cc43)O[C@@H]2CO)[C@]2(C)N=C(/C(C)=C3N=C(/C=C4N=C1[C@@H](CCC(N)=O)C\4(C)C)[C@@H](CCC(N)=O)[C@]\3(C)CC(N)=O)[C@@H](CCC(N)=O)[C@]2(C)CC(N)=O.[Co+3].[OH-] [hydroxocobalamin] | time hydroxocobalamin remains relatively stable ([3]; lipid emulsions, 40° C.): about 6 months
